Source: patent US6114334A, “Piperazine derivatives as therapeutic agents” (Knoll Aktiengesellschaft, priority 1995, dated 2000)

Experiments:
5-HT1A receptors = biological target: T1, 5-HT1A receptors (Rattus norvegicus, UniProt P19327); experiment: inhibition of [3H]8-OH-DPAT binding to 5-HT1A receptors in vitro; design: species or system rat (male Sprague-Dawley, hippocampal tissue); settings: rat hippocampus; for Ki: [3H]8-OH-DPAT 2 nM, 25° C., 30 min
T1 sequence (P19327 1-422): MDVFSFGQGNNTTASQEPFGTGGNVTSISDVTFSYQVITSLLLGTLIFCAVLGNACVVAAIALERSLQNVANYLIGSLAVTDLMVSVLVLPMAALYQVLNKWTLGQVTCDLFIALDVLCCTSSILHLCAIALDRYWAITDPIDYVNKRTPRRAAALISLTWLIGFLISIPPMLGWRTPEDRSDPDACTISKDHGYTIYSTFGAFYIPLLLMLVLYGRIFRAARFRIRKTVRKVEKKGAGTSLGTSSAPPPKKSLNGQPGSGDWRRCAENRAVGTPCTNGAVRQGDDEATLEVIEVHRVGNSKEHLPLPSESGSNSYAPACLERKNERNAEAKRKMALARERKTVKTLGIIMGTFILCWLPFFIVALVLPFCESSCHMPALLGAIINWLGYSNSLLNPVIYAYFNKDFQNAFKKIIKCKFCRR
Description: Hippocampal tissue from the brains of male Sprague-Dawley rats (Charles River; weight range 150-250 g) was homogenised in ice-cold 50 mM Tris-HCl buffer (pH 7.7 when measured at 25° C., 1:40 w/v) and centrifuged at 30,000 g at 4° C. for 10 minutes. The pellet was rehomogenised in the same buffer, incubated at 37° C. for 10 minutes and centrifuged at 30,000 g at 4° C. for 10 minutes. The final pellet was resuspended in 50 mM Tris-HCl buffer (pH 7.7) containing 4 mM CaCl2. 0.1% L-ascorbic acid and 10 μM pargyline hydrochloride (equivalent to 6.25 mg wet weight of tissue/ml) and used immediately in the binding assay. Aliquots (400 μl; equivalent to 2.5 mg wet weight of tissue/tube) of this suspension were added to tubes containing the ligand (50 μl; 2 nM) and distilled water (50 μl; total binding) or 5-HT (50 μl; 10 μM; non-specific binding) or test compound (50 μl; at a single concentration of 10^-6 M or at 10 concentrations ranging from 10^-11 -10^-3 M). The ligand was [^3 H]8-hydroxy-2-(dipropylamino)tetralin ([^3 H]8-OH-DPAT) and the mixture was incubated at 25° C. for 30 minutes before the incubation was terminated by rapid filtration.

α2A-adrenoceptors = biological target: T2, α2A-adrenoceptors (Homo sapiens, UniProt P08913); experiment: inhibition of tritiated RX 821002 binding to α2A-adrenoceptors in vitro; design: species or system human (cerebral cortex post-mortem); settings: human cerebral cortex; for inhibition at 1 µM: 10^-6 M, [3H]RX 821002, read-out: % displacement at 10^-6 M, α2A
T2 construct: Human cerebral cortex obtained at post-mortem; from tissue; host or cells: human cerebral cortex, post-mortem
T2 sequence (P08913 1-465): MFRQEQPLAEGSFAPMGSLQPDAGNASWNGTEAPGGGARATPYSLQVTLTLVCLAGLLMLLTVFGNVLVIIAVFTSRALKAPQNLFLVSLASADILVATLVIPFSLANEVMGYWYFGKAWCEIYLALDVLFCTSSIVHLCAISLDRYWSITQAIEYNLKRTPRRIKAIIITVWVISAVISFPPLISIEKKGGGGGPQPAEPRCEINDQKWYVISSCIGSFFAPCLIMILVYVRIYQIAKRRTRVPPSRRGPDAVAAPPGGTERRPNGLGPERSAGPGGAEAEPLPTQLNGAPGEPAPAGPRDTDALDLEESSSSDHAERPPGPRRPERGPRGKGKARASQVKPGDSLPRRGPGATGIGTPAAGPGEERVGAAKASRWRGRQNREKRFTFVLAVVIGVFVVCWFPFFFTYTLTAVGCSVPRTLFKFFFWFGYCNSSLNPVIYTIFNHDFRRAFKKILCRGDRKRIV
Description: Human cerebral cortex obtained at post-mortem was homogenised in ice-cold 0.25M sucrose (1:30 w/v) and centrifuged at 1,000 g at 4° C. for 12 minutes. The supernatant was stored on ice and the pellet was rehomogenised in 0.25M sucrose (1:15 w/v) and centrifuged at 850 g at 4° C. for 12 minutes. Combined supernatants were diluted with 5 mM Tris-HCl (pH 7.5) containing 5 mM ethylenediamine tetraacetic acid (EDTA), readjusted to pH 7.5 (at 25° C.) with 1M sodium hydroxide to 1:80 w/v, and centrifuged at 11,000 g at 4° C. for 10 minutes. The resulting pellet was resuspended in 50 mM Tris-HCl (pH 7.5) containing 5.68 mM L-ascorbic acid and 0.5 mM EDTA, readjusted to pH 7.5 (at 25° C.) with 1M sodium hydroxide to 1:80 w/v, and centrifuged at 11,000 g for 10 minutes. The pellet was stored at -80° C. On the day of the assay the pellet was thawed, resuspended in 50 mM Tris-HCl (pH 7.5) containing 5.68 mM L-ascorbic acid and 5 mM EDTA to 1:80 w/v and centrifuged at 11,000 g for 10 minutes. The final pellet was resuspended in 50 mM Tris-HCl (pH 7.5) containing 5.68 mM L-ascorbic acid and 5 mM EDTA (equivalent to 25 mg wet weight of tissue/ml).
Aliquots (400 μl; equivalent to 10 mg wet weight of tissue/tube) of this suspension were added to tubes containing the ligand (50 μl; 0.2 nM) and distilled water (50 μl; total binding) or phentolamine (50 μl; 50 μM; non-specific binding) or test compound (50 μl; at a single concentration of 10^-6 M or at 10 concentrations ranging from 10^-11 -10^-3 M). The ligand was tritiated RX 821002 (2-(2-methoxy-1,4-[6,7(n)-^3 H]benzodioxan-2-yl)-2-imidazoline) and the mixture was incubated at 0° C. for 75 minutes before the incubation was terminated by rapid filtration.
The filters were washed with ice-cold Tris-HCl buffer and dried. The filters were punched out into vials, scintillation fluid added and radioactivity determined by liquid scintillation counting. The percentage displacement of specific binding of the tritiated ligand was calculated for the single concentration (10^-6 M) of test compound. Displacement curves were then produced for those compounds which displaced ≥50% of specific binding of the tritiated ligand at 10^-6 M using a range of concentrations of the compound. The concentration which gave 50% inhibition of specific binding (IC50) was obtained from the curve. The inhibition coefficient Ki was then calculated using the formula [formula] in which [ligand] is the concentration of the tritiated ligand used and KD is the equilibrium dissociation constant for the ligand.

α2D-adrenoceptors = biological target: T3, α2D-adrenoceptors (Rattus norvegicus, UniProt P22909); experiment: inhibition of tritiated idazoxan binding to α2D-adrenoceptors in vitro; design: species or system rat (male Charles River CD, frontal cortical tissue); settings: rat frontal cortex; for inhibition at 1 µM: 10^-6 M, [3H]idazoxan, read-out: % displacement at 10^-6 M, α2D; for Ki: [3H]idazoxan 1 nM, 0° C., 75 min
T3 sequence (P22909 1-465): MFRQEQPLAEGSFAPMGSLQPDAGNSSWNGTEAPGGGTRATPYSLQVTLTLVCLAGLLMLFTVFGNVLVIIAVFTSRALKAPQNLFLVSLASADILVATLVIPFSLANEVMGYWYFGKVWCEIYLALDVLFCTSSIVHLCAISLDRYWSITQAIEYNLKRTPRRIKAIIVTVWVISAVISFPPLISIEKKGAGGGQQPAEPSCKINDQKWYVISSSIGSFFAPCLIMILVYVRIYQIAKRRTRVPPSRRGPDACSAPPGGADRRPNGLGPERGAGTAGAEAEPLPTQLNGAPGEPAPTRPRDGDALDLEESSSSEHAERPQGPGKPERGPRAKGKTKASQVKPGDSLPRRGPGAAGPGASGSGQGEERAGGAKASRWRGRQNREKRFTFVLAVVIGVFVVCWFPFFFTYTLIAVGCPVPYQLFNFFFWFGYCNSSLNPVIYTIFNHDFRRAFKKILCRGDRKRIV

α1-adrenoceptors = experiment: inhibition of 7-methoxy-[3H]prazosin binding to α1-adrenoceptors in vitro; design: species or system rat (male Charles River CD, whole cortical tissue); settings: rat whole cortex, 30 min; for Ki: 7-methoxy-[3H]prazosin 0.1 nM, 30° C.
How it was run: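 Male CD rat cortical membranes in 50 mM Tris-HCl pH 7.6 were incubated 30 min at 30 °C with 7-methoxy-[3H]prazosin (0.1 nM as added), with 5 μM phentolamine (as added) defining non-specific binding, then filtered and counted. Compounds were tested at 10^-6 M for % displacement or at 10^-11–10^-3 M for IC50, and Ki was derived from IC50, ligand concentration and KD.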

D2 dopamine receptors = D2 dopamine receptors (Rattus norvegicus, UniProt P61169); experiment: inhibition of tritiated (S)-sulpiride binding to D2 dopamine receptors in vitro; design: species or system rat (male Charles River CD, striatal tissue); settings: rat striatum, tritiated (S)-sulpiride 1 nM, 4° C., 40 min
Chain of D2 dopamine receptors (P61169 whole entry): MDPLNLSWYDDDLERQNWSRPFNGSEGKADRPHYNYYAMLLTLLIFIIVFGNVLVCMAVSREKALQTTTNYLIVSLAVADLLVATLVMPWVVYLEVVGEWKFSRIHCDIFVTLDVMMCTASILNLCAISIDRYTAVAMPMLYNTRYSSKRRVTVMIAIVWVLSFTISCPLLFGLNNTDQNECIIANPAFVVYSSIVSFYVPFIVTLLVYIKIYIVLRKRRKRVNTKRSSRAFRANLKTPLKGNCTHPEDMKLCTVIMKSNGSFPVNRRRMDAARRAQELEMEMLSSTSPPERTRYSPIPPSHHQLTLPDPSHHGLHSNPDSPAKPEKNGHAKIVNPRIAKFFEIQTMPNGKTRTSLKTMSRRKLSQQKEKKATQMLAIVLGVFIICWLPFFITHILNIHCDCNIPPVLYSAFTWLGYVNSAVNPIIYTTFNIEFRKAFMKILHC

| Structure (SMILES) | Ki (5-HT1A receptors) [nM] | inhibition at 1 µM (α2A-adrenoceptors) [%] | inhibition at 1 µM (α2D-adrenoceptors) [%] | Ki (α1-adrenoceptors) [nM] | Ki (D2 dopamine receptors) [nM] | inhibition at 1 µM (5-HT1A receptors; 10^-6 M, [3H]8-OH-DPAT, read-out: % displacement at 10^-6 M, 5-HT1A) [%] | % displacement at 10^-6 M, α1 (α1-adrenoceptors; 10^-6 M, 7-methoxy-[3H]prazosin, 1 µM) [%] | Ki (α2D-adrenoceptors) [nM] | Ki (α2A-adrenoceptors; [3H]RX 821002 0.2 nM, 0° C., 75 min) [nM] |
| --- | --- | --- | --- | --- | --- | --- | --- | --- | --- |
| Nc1c(CN2CCN(c3cccc4c3OCCO4)CC2)c(C2CCC2)nn1-c1ccccc1 [Example 29, 5-Amino-4-[4-(1,4-benzodioxan-5-yl)piperazin-1-ylmethyl]-3-cyclobutyl-1-phenylpyrazole] | 34 | 100 | 96 | 50 | > 500 |  |  |  |  |
| Cn1nc(C2CCC2)c(CN2CCN(c3cccc4c3OCCO4)CC2)c1N [Example 30, 5-Amino-4-[4-(1,4-benzodioxan-5-yl)piperazin-1-ylmethyl]-3-cyclobutyl-1-methylpyrazole] | 18 | 99 | 94 | 64 | 265 |  |  |  |  |
| Cn1nc(C2CCCC2)c(CN2CCN(c3cccc4c3OCCO4)CC2)c1N [Example 31, 5-Amino-4-[4-(1,4-benzodioxan-5-yl)piperazin-1-ylmethyl]-3-cyclopentyl-1-methylpyrazole] | 21 | 95 | 82 | 45 | > 500 |  |  |  |  |
| N#Cc1ccc(-n2nc(C3CC3)c(CN3CCN(c4cccc5c4OCCO5)CC3)c2N)cc1 [Example 32, 4-{5-Amino-4-[4-(1,4-benzodioxan-5-yl)piperazin-1-ylmethyl]-3-cyclopropylpyrazol-1-yl}benzonitrile] | 129 | 91 | 92 | 44 | 320 |  |  |  |  |
| Nc1c(CN2CCN(c3cccc4c3OCCO4)CC2)c(C2CC2)nn1-c1ccccc1Cl [Example 33, 5-Amino-4-[4-(1,4-benzodioxan-5-yl)piperazin-1-ylmethyl]-1-(2-chlorophenyl)-3-cyclopropylpyrazole] |  | 100 | 96 |  | > 500 | 98 | 94 |  |  |
| Nc1c(CN2CCN(c3cccc4c3OCCO4)CC2)c(C2CC2)nn1-c1ccncc1 [Example 34, 5-Amino-4-[4-(1,4-benzodioxan-5-yl)piperazin-1-ylmethyl]-3-cyclopropyl-1-(4-pyridyl)pyrazole] | 118 | 96 | 87 | 102 | 88 |  |  |  |  |
| Nc1c(CN2CCN(c3cccc4c3OCCO4)CC2)c(C2CC2)nn1-c1ncccn1 [Example 35, 5-Amino-4-[4-(1,4-benzodioxan-5-yl)piperazin-1-ylmethyl]-3-cyclopropyl-1-(2-pyrimidinyl)pyrazole] | 2.3 | 100 | 96 | 82 | 184 |  |  |  |  |

Continued, values first:

| Ki (5-HT1A receptors) [nM] | inhibition at 1 µM (α2A-adrenoceptors) [%] | inhibition at 1 µM (α2D-adrenoceptors) [%] | Ki (α1-adrenoceptors) [nM] | Ki (D2 dopamine receptors) [nM] | inhibition at 1 µM (5-HT1A receptors; 10^-6 M, [3H]8-OH-DPAT, read-out: % displacement at 10^-6 M, 5-HT1A) [%] | % displacement at 10^-6 M, α1 (α1-adrenoceptors; 10^-6 M, 7-methoxy-[3H]prazosin, 1 µM) [%] | Ki (α2D-adrenoceptors) [nM] | Ki (α2A-adrenoceptors; [3H]RX 821002 0.2 nM, 0° C., 75 min) [nM] | Structure (SMILES) |
| --- | --- | --- | --- | --- | --- | --- | --- | --- | --- |
| 134 | 66 |  | 396 | 297 |  |  | 127 |  | COc1ccccc1N1CCN(CC2(C)N=C(c3cccnc3)NC2=O)CC1 (stereo not shown) [Example 36, 4-[4-(2-methoxyphenyl)piperazin-1-ylmethyl]-4-methyl-2-(3-pyridyl)-2-imidazolin-5-one] |
| 93 | 69 |  | 271 | 268 |  |  | 112 |  | COc1ccccc1N1CCN(CC2(C)N=C(c3ccccc3)NC2=O)CC1 (stereo not shown) [Example 37, 4-[4-(2-methoxyphenyl)piperazin-1-ylmethyl]-4-methyl-2-phenyl-2-imidazolin-5-one] |
| 22 |  |  | 473 | 281 |  |  | 199 | 196 | CC1(CN2CCN(c3cccc4c3OCCO4)CC2)N=C(c2ccccc2)NC1=O (stereo not shown) [Example 38, 4-[4-(1,4-benzodioxan-5-yl)piperazin-1-ylmethyl]-4-methyl-2-phenyl-2-imidazolin-5-one] |
| 19 | 69 |  | > 500 | 315 |  |  | 220 |  | CC1(CN2CCN(c3cccc4c3OCCO4)CC2)N=C(c2cccnc2)NC1=O (stereo not shown) [Example 40, 4-[4-(1,4-Benzodioxan-5-yl)piperazin-1-ylmethyl]-4-methyl-2-(3-pyridyl)-2-imidazolin-5-one] |
| 224 | 57 |  | > 500 | 129 |  |  | > 500 |  | CC1(CN2CCN(c3cccc(C(F)(F)F)c3)CC2)N=C(c2ccccc2)NC1=O (stereo not shown) [Example 41, 4-Methyl-2-phenyl-4-{4-[3-(trifluoromethyl)phenyl]piperazin-1-ylmethyl}-2-imidazolin-5-one] |
| 213 | 84 |  | > 500 | > 500 |  |  | 226 |  | CC1(CN2CCN(c3cccc(Cl)c3)CC2)N=C(c2ccccc2)NC1=O (stereo not shown) [Example 42, 4-[4-(3-Chlorophenyl)piperazin-1-ylmethyl]-4-methyl-2-phenyl-2-imidazolin-5-one] |
| 276 | 93 |  | > 500 | > 500 |  |  | 33 |  | Cc1ccccc1N1CCN(CC2(C)N=C(c3ccccc3)NC2=O)CC1 (stereo not shown) [Example 43, 4-Methyl-4-[4-(2-methylphenyl)piperazin-1-ylmethyl]-2-phenyl-2-imidazolin-5-one] |
